Experiment [1] can be described thus: growth inhibition of G2058-humanized E. coli versus wild-type, dose response, G2058 mutant GFP vs wild-type RFP, cherry-pick, OD600 (AID 977626). Particulars: E. coli WT-RFP vs G2058 humanized-GFP mixed culture, fluorescence; at 50 µM (top of the series).
Experiment [2] deals with E. coli WT-RFP vs G2058 humanized-GFP mixed culture, fluorescence. The description is as above.
Setting [3] is: E. coli WT-RFP vs G2058 humanized-GFP mixed culture, measured here: total growth OD600.
Setting [4] is: measured here: G2058 humanized mutant strain GFP.

Inconclusive results are not listed. The source made the active and inactive calls. The rule behind the calls is not given here.

The results in this text go back to PubChem BioAssay AID977626 (Broad Institute, 2014).

One may read the AC50 as the midpoint of the concentration-response curve, whichever way the signal moves. With `COc1ccc(Cn2c(-c3ccc(Cl)cc3)c[n+]3ccccc23)cc1`, the activity change, negative = inhibition in experiment [1] is -3.75 (inactive). The compound also returned an AC50 in experiment [2] (setting [3]) of 45.6 µM.

Take `O=C(O)c1cc([N+](=O)[O-])ccc1NCc1ccccc1`: the activity change, negative = inhibition in experiment [1] was 23.8 (inactive). Moreover, the AC50 in experiment [2] (setting [3]) was 14.4 µM; in experiment [2] (setting [4]), 38.9 µM.

For `COC(=O)c1c(NC(=O)CCC(=O)O)sc(Cc2ccccc2)c1C`, the figures for the AC50 in experiment [2], in experiment [2] (setting [3]) and in experiment [2] (setting [4]) were 9.22 µM, 3.27 µM and 3.03 µM, respectively.

As for `CCN(CC)CCn1c2ccccc2c2nc3ccc([N+](=O)[O-])cc3cc21`, the activity change, negative = inhibition in experiment [1] was 26.7 (inactive). Besides, the values for the AC50 in experiment [2] (setting [3]) and in experiment [2] (setting [4]) were 4.58 µM and 5.66 µM, respectively.

`Cc1ccc(C)c(NC(=O)CSc2nc3nc(-c4cccs4)cc(C(F)(F)F)c3c(=O)[nH]2)c1`: the activity change, negative = inhibition in experiment [1] is -7.41 (inactive). Moreover, the figures for the AC50 in experiment [2] (setting [3]) and in experiment [2] (setting [4]) were 8.26 µM and 9.81 µM, respectively.

With `COc1ccc(Nc2oc(-c3ccco3)nc2S(=O)(=O)c2ccc(F)cc2)cc1`, the AC50 in experiment [2] was 3.67 µM.

On to `COc1ccc(NC(=O)c2ccc(-c3ccc([N+](=O)[O-])cc3)o2)cc1`, for which the AC50 in experiment [2] is 2.63 µM; in experiment [2] (setting [3]) it was 5.22 µM; in experiment [2] (setting [4]), over 100 µM.
